{"source": "patent US20180243190A1", "about": "“ACTIVATORS OF NRF2-DEPENDENT PHOTOPROTECTION AND RELATED USES THEREOF” (THE ARIZONA BOARD OF REGENTS ON BEHALF OF THE UNIVERSITY OF …, priority 2015, published 2018)", "key": {"[1]": {"system": "primary human epidermal keratinocytes (HEKs)", "assay": "Oxidative Stress RT2 Profiler PCR Expression Array analysis", "assay_type": "cell-based", "conditions": "bixin 20 μM, 24 h", "method": "Total cellular RNA was prepared according to a standard procedure using the RNeasy kit (Qiagen, Valencia, Calif., USA). Reverse transcription was performed using the RT^2 First Strand kit (SuperArray, Frederick, Md., USA) and 1 μg total RNA. The Human Oxidative Stress RT^2Profiler™ PCR Expression Array (SuperArray) profiling the expression of 84 stress-related genes was employed as described before. Gene-specific product was normalized to ACTB and quantified using the comparative (ΔΔCt) Ct method following the ABI Prism 7000 sequence detection system user guide. Expression values were averaged across three independent array experiments followed by statistical analysis."}, "[2]": {"system": "NRF2 transcriptional activity", "assay": "Dual luciferase NQO1-ARE reporter assay in HaCaT keratinocytes", "assay_type": "cell-based, human", "conditions": "10-40 μM, 16 h", "method": "Transfection of cDNA was performed using Lipofectamine 3000 (Invitrogen) according to the manufacturer's instructions. Activation of NRF2 transcriptional activity was performed as previously published. Briefly, HaCaT cells were cotransfected with expression vectors for either KEAP1 wild type (KEAP1-WT) or KEAP1 with a mutation that generates a protein that contains a serine residue instead of a cysteine (KEAP1-C151S), along with NQO1-ARE firefly luciferase and Renilla luciferase reporters. At 24 h post-transfection, cells were left untreated or treated with SF (5 μM), As (5 μM), or bixin (40 μM) for 16 h. The cells were then lysed for analysis of the reporter gene activity using the Promega dual-luciferase reporter gene assay system."}, "NRF2 [3]": {"system": "NRF2", "assay": "Immunoblot analysis (NRF2/KEAP1/targets) in HaCaT keratinocytes", "assay_type": "cell-based, human", "method": "Experiments were performed according to previously published procedures. Cells were harvested in sample buffer (50 mM Tris-HCl [pH 6.8], 2% sodium dodecyl sulfate (SDS), 10% glycerol, 100 mM dithiothreitol (DTT), and 0.1% bromophenol blue), boiled and sonicated. Total cell lysates were resolved by SDS-PAGE and subjected to immunoblot analyses with the indicated antibodies. For the ubiquitination assay, cells were cotransfected with expression vectors for NRF2 and HA-tagged ubiquitin (HA-Ub). Cells were left untreated or treated with either 5 μM sulforaphane (SF) or 40 μM bixin along with 10 μM MG132 for 4 h. Cells were harvested in buffer containing 2% SDS, 150 mM NaCl, 10 mM Tris-HCl (pH 8.0), and 1 mM DTT and boiled immediately. For immunoprecipitation, 1 μg of NRF2 antibody was incubated with the cell lysates at 4° C. overnight with protein A agarose beads (Invitrogen). Immunoprecipitated complexes were washed four times with RIPA buffer and eluted in sample buffer by boiling for 5 min. Samples were resolved by SDS-PAGE and immunoblotted with HA antibody. To measure the half-life of NRF2, HaCaT cells were either left untreated or treated with 5 μM bixin for 4 h, then 50 μM cycloheximide was added to block protein synthesis. Total cell lysates were collected at different time points and subjected to immunoblot analysis with NRF2 antibody. The relative intensity of the bands was quantified using the ChemiDoc CRS gel documentation system and Quantity One software (BioRad)."}, "NRF2 [4]": {"system": "NRF2", "assay": "Cell-based NRF2 ubiquitination assay", "design": "species or system human", "conditions": "HaCaT, bixin 40 μM or SF 5 μM with MG132 10 μM, 4 h", "method": "In order to test if bixin-based NRF2 activation occurs through inhibition of KEAP1-mediated ubiquitination, a cell-based ubiquitination assay was performed in HaCaT cells cotransfected with expression vectors for NRF2 and HA-tagged ubiquitin (HA-Ub) (FIG. 3F). To this end, cells were either exposed to bixin (40 μM) or sulforaphane (SF; 5 μM, positive control) or left untreated, combined with proteasome inhibition (MG132; 10 μM, 4 h).\nExperiments were performed according to previously published procedures. Cells were harvested in sample buffer (50 mM Tris-HCl [pH 6.8], 2% sodium dodecyl sulfate (SDS), 10% glycerol, 100 mM dithiothreitol (DTT), and 0.1% bromophenol blue), boiled and sonicated. Total cell lysates were resolved by SDS-PAGE and subjected to immunoblot analyses with the indicated antibodies. For the ubiquitination assay, cells were cotransfected with expression vectors for NRF2 and HA-tagged ubiquitin (HA-Ub). Cells were left untreated or treated with either 5 μM sulforaphane (SF) or 40 μM bixin along with 10 μM MG132 for 4 h. Cells were harvested in buffer containing 2% SDS, 150 mM NaCl, 10 mM Tris-HCl (pH 8.0), and 1 mM DTT and boiled immediately. […] The relative intensity of the bands was quantified using the ChemiDoc CRS gel documentation system and Quantity One software (BioRad)."}, "[5]": {"design": "species or system SKH-1 mice", "conditions": "mouse, in vivo, 200 mg/kg", "description": "To explore the potential systemic photoprotective activity of bixin in a murine skin sunburn model, the feasibility of upregulating cutaneous NRF2 activity by systemic administration was first examined. It has been reported earlier that efficient cutaneous accumulation of dietary carotenoids requires prolonged nutritional supplementation over weeks and that pharmacokinetic parameters of cutaneous delivery of dietary carotinoids differ between humans and mice. Therefore, in order to circumvent the more complex pharmacokinetics associated with dietary supplementation, an intraperitoneal (i.p.) route for bixin systemic administration followed by examination of cutaneous NRF2 status was chosen. After i.p. injection of bixin (200 mg/kg) performed in Nrf2^+/+ and Nrf2^−/− mice, plasma was collected at 0, 1, 2, 4, 8, 16, 24, 48 and 72 h after injection followed by HPLC-photodiode array detection (FIG. 4A-C). […] Next, efficacy of various bixin treatment regimens (differing with regard to total dose and time after injection) for maximum activation of the NRF2 pathway in murine skin was determined (FIG. 4D).\nElectrospray mass spectrometry of bixin [dissolved in tetrahydrofuran and diluted tenfold in acetonitrile/NH4OH (0.1 N); ESI-MS (negative ion mode) m/z 393.21 (M−1)^−] was performed using a Bruker Apex FT/ICR mass spectrometer. […]"}, "NRF2 [6]": {"system": "NRF2", "assay": "Immunoblot analysis in human primary melanocytes", "assay_type": "cell-based", "conditions": "0-40 μM", "method": "Human cultured primary melanocytes (skin pigment producing cells) were treated with Bixin (0-40 μM) for up to 16 h. After 4 and 16 h, cells were harvested for immunoblot analysis testing for Nrf2 upregulation (Nrf2) GAPDH served as loading control.\nHuman cultured primary melanocytes (skin pigment producing cells) were treated with Bixin (0-40 μM) for 16 h. After 16 h, cells were harvested for immunoblot analysis testing for upregulation of cytoprotective Nrf2 targets including NQO1 and TrxR1. GAPDH served as loading control."}}, "data": [{"smiles": "COC(=O)/C=C/C(C)=C\\C=C\\C(C)=C\\C=C\\C=C(C)\\C=C\\C=C(C)\\C=C\\C(=O)O", "note": "[bixin]", "values": [{"measurement": "expression of NRF2 target genes (AKR1C2, GCLC, NQO1, SLC7A11, FTH1, TXNRD1, NCF2, SRXN)", "setting": "[1]", "value": "Pronounced upregulation"}, {"measurement": "NRF2 transcriptional activity", "setting": "[2]", "value": "dose-dependent induction"}, {"measurement": "NRF2 target proteins GCLM and AKR1C1", "setting": "NRF2 [3]", "value": "upregulated"}, {"measurement": "bixin-induced Nrf2 upregulation after 24 h preincubation using NAC", "setting": "NRF2 [3]", "value": "did not attenuate"}, {"measurement": "duration of NRF2 upregulation", "setting": "NRF2 [3]; bixin 20 μM", "value": "sustained over the course of the 24 h treatment"}, {"measurement": "time to detectable induction of NRF2 protein levels", "setting": "NRF2 [3]; bixin 20 μM", "value": "≤ 2", "unit": "h"}, {"measurement": "KEAP1 protein levels", "setting": "NRF2 [3]; bixin 20 μM, 0-48 h", "value": "no changes"}, {"measurement": "duration of GCLM upregulation", "setting": "NRF2 [3]; bixin 20 μM, 48 h", "value": "persisted over an extended period"}, {"measurement": "bixin-induced upregulation of Nrf2 protein levels under cotreatment with anti-oxidants (tiron, trolox, NAC)", "setting": "NRF2 [3]; bixin 40 μM, 4 h, 1 h antioxidant pretreatment", "value": "not attenuated"}, {"measurement": "NRF2-ubiquitination versus untreated control", "setting": "NRF2 [4]", "value": "dramatic reduction"}, {"measurement": "AUC, Nrf2+/+ versus Nrf2−/−", "setting": "[5]", "value": "did not differ significantly"}, {"measurement": "peak plasma concentration (Cmax)", "setting": "[5]; ip", "value": "up to 11.3 μg/ml"}, {"measurement": "Nrf2 upregulation in melanocytes", "setting": "NRF2 [6]; 4 and 16 h", "value": "efficient Nrf2 activator"}, {"measurement": "upregulation of cytoprotective Nrf2 targets NQO1 and TrxR1 in melanocytes", "setting": "NRF2 [6]; 16 h", "value": "efficient activator"}, {"measurement": "DCF fluorescence after compound only (no dye sensitization)", "setting": "HaCaT keratinocytes", "value": "did not cause an increase"}, {"measurement": "protection against 1O2-induced oxidative stress", "setting": "HaCaT keratinocytes; HaCaT, 20 μM, 1 h preincubation", "value": "without protective effects"}, {"measurement": "suppression of 1O2-induced increase in DCF fluorescence", "setting": "HaCaT keratinocytes; HaCaT, 20 μM, 24 h preincubation", "value": "efficiently suppressed"}]}]}
